This passage reports IC50 results from BindingDB's records for doi:10.1016/j.chembiol.2008.02.015 (University of Dundee, 2008).

Numbered stars: 1 amine (or outer) side, 2 acyl side, 3 side chain; on linkers, the order of the positions; unused ones are H or OH. Square brackets hold non-standard residues; d marks the D form. Side chains are listed from the residue outwards. Peptide text beside a SMILES is read from it. NMeF = CN[C@@H](Cc1ccccc1)C(=O)O; CO = O=C([*:1])[*:2]

One assay concerns the target Chitotriosidase-1 (Homo sapiens, UniProt Q13231). The assay is described as follows: Inhibition Assay. Conditions: pH 5.5.
For the next assay, the target named is Endochitinase B1 (Aspergillus fumigatus, UniProt Q873X9). Kind of assay: Inhibition Assay. Conditions: pH 5.5.

Chitotriosidase-1, sequence (Q13231 whole entry): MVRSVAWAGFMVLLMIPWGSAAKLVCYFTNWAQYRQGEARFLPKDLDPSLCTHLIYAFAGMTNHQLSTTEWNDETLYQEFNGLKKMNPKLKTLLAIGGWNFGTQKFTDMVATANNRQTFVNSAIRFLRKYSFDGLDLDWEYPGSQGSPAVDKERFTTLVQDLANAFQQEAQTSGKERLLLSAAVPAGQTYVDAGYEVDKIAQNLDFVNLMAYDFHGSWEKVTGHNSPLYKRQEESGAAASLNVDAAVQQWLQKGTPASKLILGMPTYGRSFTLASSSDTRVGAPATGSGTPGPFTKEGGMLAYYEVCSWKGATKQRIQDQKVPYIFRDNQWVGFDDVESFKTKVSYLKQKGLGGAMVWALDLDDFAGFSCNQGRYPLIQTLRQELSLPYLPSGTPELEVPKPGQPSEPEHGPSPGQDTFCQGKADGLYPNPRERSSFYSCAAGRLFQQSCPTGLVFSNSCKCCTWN

With `CNC(=O)NC(=N)NCCC[C@H](NC(C)=O)C(=O)N(C)[C@@H](Cc1ccccc1)C(=O)O`, it took 190 µM to reach half-maximal inhibition on Chitotriosidase-1 (IC50).
The compound `CNC(=O)NC(N)=NCCC[C@H](NC(=O)[C@@H](C)NC(C)=O)C(=O)N(C)[C@@H](Cc1ccccc1)C(=O)N[C@@H](CC(=O)O)C(=O)O` [Tetrapeptide] returned an IC50 on Chitotriosidase-1 of 28 µM. This IC50 lies about 6.8-fold lower than the previous one.
Regarding `[H]/N=C(\NC)NC(=O)NC` [Argifin-Derived Fragments, 1], the IC50 came out at 5800 µM against Chitotriosidase-1 and 500 µM against Endochitinase B1.
Regarding `CNC(=O)NC(N)=NCCC[C@H](NC(C)=O)C(=O)N(C)[C@@H](Cc1ccccc1)C(=O)N[C@@H](CC(=O)O)C(=O)O` [Tripeptide] (Ac-Arg([CO-NHMe])-[NMeF]-Asp-OH), the IC50 against Chitotriosidase-1 was 68 µM; against Endochitinase B1, 5.1 µM.
In the case of `CNC(=O)NC(N)=NCCC[C@H](NC(C)=O)C(=O)NC` [Monopeptide], the midpoint of inhibition against Chitotriosidase-1, the IC50, lay at 1000 µM.
Turning to `CNC(=O)NC(=N)NCCC[C@@H]1NC(=O)[C@@H](C)NC(=O)C[C@@H](C(=O)O)NC(=O)C[C@@H](C(=O)O)NC(=O)[C@H](Cc2ccccc2)N(C)C1=O` [(2R,5S,8S,11S,15S)-8-benzyl-2,7-dimethyl-5-[3-({[(methylcarbamoyl)amino]methanimidoyl}amino)propyl]-3,6,9,13,17-pentaoxo-1,4,7,10,14-pentaazacycloheptadecane-11,15-dicarboxylic acid], the IC50 on Endochitinase B1 was found to be 0.027 µM.
